In patent US12583834B2, “Method of treating bacterial infections and pharmaceutical composition for treating bacterial infections” (Institut National de Recherche pour l'Agriculture, …, priority 2020, dated 2026):
“Also recorded” adds a separate entry of the source.

What was measured:
Mfd from E. coli = Mfd from E. coli (Escherichia coli, UniProt P30958); experiment: Inhibition of Mfd ATPase activity in vitro (BIOMOL Green phosphate release); type: biochemical; settings: for relative inhibition of E. coli Mfd ATPase activity with respect to the vehicle (DMSO): 100 μM compound, ATP 0.035 mM and 0.070 mM, FIG. 1
Protocol: Mfd enzyme activity was evaluated by measuring the quantity of inorganic phosphate (PO4i) released using BIOMOL® Green reagent microtiter-plate assay (Enzo Life Sciences). Mfd from E. coli (0.35 μM) was incubated with DMSO or with the tested compounds at a concentration of 100 μM in DMSO, for 10 min at 37° C. ATPase reaction was measured in Tris pH8 0.05M; NaCl 0.3M; DTT 0.002M; MgCl2 0.0025M; DMSO 2%; containing ATP (at different concentrations between 0.0022 and 0.279 mM) for 30 min at 37° C. 50 μL of each reaction medium was transferred into clear, flat-bottom 96-well plates and the reaction was terminated by the addition of 100 μl of BIOMOL® Green reagent. The absorbance at 620 nm was measured in a microplate reader (Tecan). The absorbance values were then transformed into nmols of PO4i released based on a PO4i standard curve prepared as recommended by the supplier.
The potency of each compound is calculated relative to the vehicle DMSO control. Each point is the mean of duplicate experiments of N=2+/−SEM (Standard error of the Mean).
Mfd ATPase activity at ATP concentrations ranging from 0 to 0.279 mM was measured in the same conditions as described above, without and with presence of various doses of compound (Ia): 0 μM, 3 μM, 10 μM, 30 μM, 65 μM and 100 μM. Curves were fit to the Michaelis-Menten equation with the GraphPad PRISM software. Results are the mean of duplicate experiment of N=3-10+/−SEM.

B. cereus (Bc 407) [1] = experiment: Antimicrobial activity during nitric oxide stress, B. cereus; type: cell-based, Bacillus cereus; settings: 4 h at 37° C. under nitric oxide stress, 10 to 200 μM, FIG. 3
Protocol: (§1) The power of compound (Ia) to inhibit bacterial growth, specifically in the presence of in vitro-produced nitric oxide, is measured for different bacterial species: Bacillus cereus and two antibiotherapy challenging bacteria, regarding medical interest and therapeutic needs, namely Klebsiella pneumoniae and Acinetobacter baumannii.
(§2) Gram-positive B. cereus (Bc 407) and Gram-negative K. pneumoniae (CIP700603) and A. baumannii (CIP7034) strains were grown to exponential phase in Luria-Bertani (LB) medium. Bacteria solution were prepared in Roswell Park Memorial Institute (RPMI) medium and 150 μL were dispatched into 96-wells plate. To measure effect of compound (Ia), bacteria were exposed to 50 μL of NO at a concentration that induces a survival below 90% compared to the condition without NO, in absence (0 μM) or presence (at a dose ranging from 10 to 200 μM) of compound (Ia).
(§3) Bacteria survival rate was quantified after 4 h at 37° C. by normalizing bacterial load in (Ia)-treated samples against that in DMSO-treated samples (0 μM of (Ia)).
(§4) The results obtained are shown in FIG. 3 for B. cereus, in FIG. 4 for K. pneumoniae and in FIG. 5 for A. baumanii. In these bar graphs the data represent the mean of duplicate experiment of N=3/12+/−SEM. Two-tailed t-student tests are employed to investigate statistical differences, using GraphPad Prism.

[2] = system: K. pneumoniae (CIP700603); experiment: Antimicrobial activity during nitric oxide stress, K. pneumoniae; type: cell-based, Klebsiella pneumoniae; settings: 4 h at 37° C. under nitric oxide stress, 10 to 200 μM, FIG. 4
Protocol: as §1, §2, §3, §4

A. baumannii (CIP7034) = experiment: Antimicrobial activity during nitric oxide stress, A. baumannii; type: cell-based, Acinetobacter baumannii; settings: A. baumanii, 4 h at 37° C. under nitric oxide stress, 10 to 200 μM; FIG. 5
Protocol: as §1, §2, §3, §4

Bacillus cereus (Bc 407) = experiment: Survival of silkworm larvae infected with B. cereus; type: in vivo; settings: Bombyx mori larvae, B. cereus 1×10^2 CFU, 0.3 to 5.5 μg/g injected with the bacteria, 24 h at 27° C.; FIG. 6
[3] = system: Pseudomonas aeruginosa (CIP27853); experiment: Survival of silkworm larvae infected with P. aeruginosa; type: in vivo; settings: Bombyx mori larvae, P. aeruginosa 1×10^4 CFU, 0.3 to 5.5 μg/g injected with the bacteria, 24 h at 27° C.; effect at higher doses; FIG. 7
Bombyx mori larvae = experiment: Toxicity towards silkworm larvae; type: in vivo; settings: 0.3 to 5.5 μg/g injected
B. cereus (Bc 407) [4] = experiment: Mouse systemic infection model, B. cereus bacterial load in organs; type: in vivo, C57BL/6JRj mice; settings: mice, B. cereus 4×10^6 CFU i.p., 12 mg/kg i.p., 6 h after infection; lung, liver and spleen; FIG. 8
Protocol: The efficiency of the compound of the invention (Ia) against a bacterial pathogen was assessed in a mouse model of infection (systemic infection model). Eight weeks old female C57BL/6JRj (Janvier Labs) mice were infected with B. cereus (Bc 407) (4×10^6 CFU) by intraperitoneal injection (100 μL). 100 μl of compound of the invention (Ia) in DMSO at a dose of 12 mg/kg, or of the vehicle alone (DMSO), were further injected to the mice by intraperitoneal injection. 6 h after the infection mice were sacrificed by cervical dislocation. Mice organs were collected and homogenized in cold Phosphate Buffered Saline (PBS). Bacteria burdens in organs were determined by plating serially dilution of the homogenate on LB agar media. The results obtained are shown on FIG. 8 in a/ for the lung, in b/ for the liver and in c/ for the spleen. In these figures, the data are represented as mean+/−SEM from 3 different experiments with 6-8 mice per group. Each point represents one animal.

Mfd from E. coli, sequence (P30958 whole entry): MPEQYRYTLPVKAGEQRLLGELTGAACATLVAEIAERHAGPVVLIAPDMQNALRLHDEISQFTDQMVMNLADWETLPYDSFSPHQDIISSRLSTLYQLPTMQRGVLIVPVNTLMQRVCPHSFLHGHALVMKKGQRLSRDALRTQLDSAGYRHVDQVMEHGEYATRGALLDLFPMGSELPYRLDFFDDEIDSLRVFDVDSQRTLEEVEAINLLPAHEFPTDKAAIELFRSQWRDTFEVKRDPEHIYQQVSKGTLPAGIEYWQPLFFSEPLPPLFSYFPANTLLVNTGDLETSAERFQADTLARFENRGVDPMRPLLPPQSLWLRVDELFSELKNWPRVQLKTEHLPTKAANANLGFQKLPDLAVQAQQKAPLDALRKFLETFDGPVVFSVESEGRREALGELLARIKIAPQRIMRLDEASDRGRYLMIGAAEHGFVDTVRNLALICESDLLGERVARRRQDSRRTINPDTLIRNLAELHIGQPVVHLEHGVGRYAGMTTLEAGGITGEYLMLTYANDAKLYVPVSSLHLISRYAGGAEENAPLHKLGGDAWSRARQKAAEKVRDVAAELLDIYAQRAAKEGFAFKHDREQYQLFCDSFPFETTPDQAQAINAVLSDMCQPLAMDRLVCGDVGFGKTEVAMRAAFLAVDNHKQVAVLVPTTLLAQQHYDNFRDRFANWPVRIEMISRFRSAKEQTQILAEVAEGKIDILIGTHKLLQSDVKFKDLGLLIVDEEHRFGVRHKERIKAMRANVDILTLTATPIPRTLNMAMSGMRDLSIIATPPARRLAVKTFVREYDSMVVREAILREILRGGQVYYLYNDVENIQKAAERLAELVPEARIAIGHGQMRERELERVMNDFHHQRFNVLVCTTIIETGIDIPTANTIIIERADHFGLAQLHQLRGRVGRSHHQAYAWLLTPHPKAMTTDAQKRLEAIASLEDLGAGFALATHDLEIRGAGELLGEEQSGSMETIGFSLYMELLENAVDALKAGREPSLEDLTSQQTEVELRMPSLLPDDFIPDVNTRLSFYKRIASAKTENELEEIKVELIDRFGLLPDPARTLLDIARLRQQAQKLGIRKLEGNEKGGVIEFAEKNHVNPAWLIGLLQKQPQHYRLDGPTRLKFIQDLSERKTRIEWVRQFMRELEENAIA

| SMILES | mode of inhibition of Mfd ATPase activity (Mfd from E. coli; 0-100 μM (Ia), ATP 0 to 0.279 mM, Michaelis-Menten fit, FIG. 2) | relative inhibition of E. coli Mfd ATPase activity with respect to the vehicle (DMSO) (Mfd from E. coli) | bacteria survival / resistance to NO in vitro (B. cereus (Bc 407) [1]) | bacteria survival / resistance to NO in vitro [2] | bacteria survival / resistance to NO in vitro (A. baumannii (CIP7034)) | survival of infected larvae (protective effect) (Bacillus cereus (Bc 407)) | survival of infected larvae (protective effect) [3] | toxicity towards the insects (Bombyx mori larvae) | bacterial load in organs (B. cereus (Bc 407) [4]) |
| --- | --- | --- | --- | --- | --- | --- | --- | --- | --- |
| CN(C)S(=O)(=O)c1ccc(S(=O)(=O)N2CCC(n3c(=O)[nH]c4ccccc43)CC2)cc1 [compound (Ia), N,N-dimethyl-4-{[4-(2-oxo-2,3-dihydro-1H-1,3-benzodiazol-1-yl)piperidin-1-yl]sulfonyl}benzene-1-sulfonamide] | competitive inhibitor of Mfd ATPase activity | much higher capacity of inhibition of the Mfd ATPase activity than the comparative compounds; also recorded: more efficient than compound (Ib) | reduces bacteria resistance to NO in vitro | reduces bacteria resistance to NO in vitro | reduces bacteria resistance to NO in vitro | significant protective effect | significant protective effect | no toxicity towards the insects | decreases the bacterial load in all these organs |
| O=c1[nH]c2ccccc2n1C1CCN(c2ccc(S(=O)(=O)N3CCCCC3)cn2)CC1 [compound (Ib)] |  | much higher capacity of inhibition of the Mfd ATPase activity than the comparative compounds |  |  |  |  |  |  |  |
